Source: patent US7396837B2, “Antitumoral analogs of lamellarins” (Pharma Mar, S.A.U., priority 2002, dated 2008)

Assays:
Type in all cases: cell-based
HT-29 = experiment: SRB colorimetric cell growth inhibition assay, HT-29; details: Homo sapiens, HT-29, HT-29; for GI50: GI=growth inhibition, read-out: GI50 HT-29; for CC50: LC=cell killing (cytotoxic effect), read-out: LC50 HT-29; for IC (TGI): TGI=total growth inhibition (cytostatic effect), read-out: TGI HT-29
Outline: (§1)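 Cells are kept under uninterrupted exposure to compound. Staining with sulforhodamine B then measures cell growth and viability. Triplicate data give mean ± SD, from which growth inhibition, total growth inhibition and lethal concentration values follow.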

SK-MEL-28 = experiment: SRB colorimetric cell growth inhibition assay, SK-MEL-28; details: Homo sapiens, SK-MEL-28, MEL-28; for GI50: GI=growth inhibition, read-out: GI50 MEL-28; for CC50: LC=cell killing (cytotoxic effect), read-out: LC50 MEL-28; for IC (TGI): TGI=total growth inhibition (cytostatic effect), read-out: TGI MEL-28
Outline: as §1

IGROV = experiment: SRB colorimetric cell growth inhibition assay, IGROV; details: Homo sapiens, IGROV; for GI50: GI=growth inhibition, read-out: GI50 IGROV; for CC50: LC=cell killing (cytotoxic effect), read-out: LC50 IGROV; for IC (TGI): TGI=total growth inhibition (cytostatic effect), read-out: TGI IGROV
Outline: as §1

SK-BR-3 = experiment: SRB colorimetric cell growth inhibition assay, SK-BR-3; details: Homo sapiens, SK-BR-3, SK-BR-3; for GI50: GI=growth inhibition, read-out: GI50 SK-BR-3; for CC50: LC=cell killing (cytotoxic effect), read-out: LC50 SK-BR-3; for IC (TGI): TGI=total growth inhibition (cytostatic effect), read-out: TGI SK-BR-3
Outline: as §1

A-549 = experiment: SRB colorimetric cell growth inhibition assay, A-549; details: Homo sapiens, A549, A-549; for GI50: GI=growth inhibition, read-out: GI50 A-549; for CC50: LC=cell killing (cytotoxic effect), read-out: LC50 A-549; for IC (TGI): TGI=total growth inhibition (cytostatic effect), read-out: TGI A-549
Outline: as §1

K-562 = experiment: SRB colorimetric cell growth inhibition assay, K-562; details: Homo sapiens, K562, K-562; for GI50: GI=growth inhibition, read-out: GI50 K-562; for CC50: LC=cell killing (cytotoxic effect), read-out: LC50 K-562; for IC (TGI): TGI=total growth inhibition (cytostatic effect), read-out: TGI K-562
Outline: as §1

IGROV-ET = experiment: SRB colorimetric cell growth inhibition assay, IGROV-ET (ET-743 resistant); details: Homo sapiens, IGROV-ET; for GI50: GI=growth inhibition, read-out: GI50 IGROV-ET; for CC50: LC=cell killing (cytotoxic effect), read-out: LC50 IGROV-ET; for IC (TGI): TGI=total growth inhibition (cytostatic effect), read-out: TGI IGROV-ET
Outline: as §1

DU-145 = experiment: SRB colorimetric cell growth inhibition assay, DU-145; details: Homo sapiens, DU-145, DU-145; for GI50: GI=growth inhibition, read-out: GI50 DU-145; for CC50: LC=cell killing (cytotoxic effect), read-out: LC50 DU-145; for IC (TGI): TGI=total growth inhibition (cytostatic effect), read-out: TGI DU-145
Outline: as §1

LNCaP = experiment: SRB colorimetric cell growth inhibition assay, LNCaP; details: Homo sapiens, LNCaP, LN-caP; for GI50: GI=growth inhibition, read-out: GI50 LN-caP; for CC50: LC=cell killing (cytotoxic effect), read-out: LC50 LN-caP; for IC (TGI): TGI=total growth inhibition (cytostatic effect), read-out: TGI LN-caP
Outline: as §1

LoVo-Dox = experiment: SRB colorimetric cell growth inhibition assay, LoVo-Dox (MDR); details: Homo sapiens, LOVO-DOX; for GI50: GI=growth inhibition, read-out: GI50 LOVO-DOX; for CC50: LC=cell killing (cytotoxic effect), read-out: LC50 LOVO-DOX; for IC (TGI): TGI=total growth inhibition (cytostatic effect), read-out: TGI LOVO-DOX
Outline: as §1

LoVo = experiment: SRB colorimetric cell growth inhibition assay, LoVo; details: Homo sapiens, LoVo; for GI50: GI=growth inhibition, read-out: GI50 LOVO; for CC50: LC=cell killing (cytotoxic effect), read-out: LC50 LOVO; for IC (TGI): TGI=total growth inhibition (cytostatic effect), read-out: TGI LOVO
Outline: as §1

HeLa = experiment: SRB colorimetric cell growth inhibition assay, HeLa; details: Homo sapiens, HeLa; for GI50: GI=growth inhibition, read-out: GI50 HELA; for CC50: LC=cell killing (cytotoxic effect), read-out: LC50 HELA; for IC (TGI): TGI=total growth inhibition (cytostatic effect), read-out: TGI HELA
Outline: as §1

HeLa-APL = experiment: SRB colorimetric cell growth inhibition assay, HeLa-APL (aplidine resistant); details: Homo sapiens, HELA-APL; for GI50: GI=growth inhibition, read-out: GI50 HELA-APL; for CC50: LC=cell killing (cytotoxic effect), read-out: LC50 HELA-APL; for IC (TGI): TGI=total growth inhibition (cytostatic effect), read-out: TGI HELA-APL
Outline: as §1

PANC-1 = experiment: SRB colorimetric cell growth inhibition assay, PANC-1; details: Homo sapiens, PANC-1, PANC-1; for GI50: GI=growth inhibition, read-out: GI50 PANC-1; for CC50: LC=cell killing (cytotoxic effect), read-out: LC50 PANC-1; for IC (TGI): TGI=total growth inhibition (cytostatic effect), read-out: TGI PANC-1
Outline: as §1

COc1cc2c(cc1OC)-c1c(-c3ccc(OC(=O)CCCC[C@@H]4SC[C@@H]5NC(=O)N[C@@H]54)c(OC)c3)c3c4cc(OC)c(OC(=O)CCCC[C@@H]5SC[C@@H]6NC(=O)N[C@@H]65)cc4oc(=O)c3n1CC2 [Compound 47]
GI50 (HT-29): 1.25 µM
CC50 (HT-29): 10.3 µM
IC (TGI) (HT-29): 10.3 µM
GI50 (SK-MEL-28): 2.07 µM
CC50 (SK-MEL-28): 10.3 µM
IC (TGI) (SK-MEL-28): 10.3 µM
GI50 (IGROV): 0.764 µM
CC50 (IGROV): 10.3 µM
IC (TGI) (IGROV): 10.3 µM
GI50 (SK-BR-3): 2.29 µM
CC50 (SK-BR-3): 10.3 µM
IC (TGI) (SK-BR-3): 6.01 µM
GI50 (A-549): 3.26 µM
CC50 (A-549): 10.3 µM
IC (TGI) (A-549): 10.3 µM
GI50 (K-562): 0.564 µM
CC50 (K-562): 10.3 µM
IC (TGI) (K-562): 3.74 µM
GI50 (IGROV-ET): 2.07 µM
CC50 (IGROV-ET): 10.3 µM
IC (TGI) (IGROV-ET): 10.3 µM
GI50 (DU-145): 1.08 µM
CC50 (DU-145): 10.3 µM
IC (TGI) (DU-145): 4.61 µM
GI50 (LNCaP): 0.0884 µM
CC50 (LNCaP): 5.87 µM
IC (TGI) (LNCaP): 1.59 µM
GI50 (LoVo-Dox): 8.09 µM
CC50 (LoVo-Dox): 10.3 µM
IC (TGI) (LoVo-Dox): 10.3 µM
GI50 (LoVo): 3.97 µM
CC50 (LoVo): 10.3 µM
IC (TGI) (LoVo): 10.3 µM
GI50 (HeLa): 0.537 µM
CC50 (HeLa): 10.3 µM
IC (TGI) (HeLa): 4.79 µM
GI50 (HeLa-APL): 5.75 µM
CC50 (HeLa-APL): 10.3 µM
IC (TGI) (HeLa-APL): 10.3 µM
GI50 (PANC-1): 3.86 µM
CC50 (PANC-1): 10.3 µM
IC (TGI) (PANC-1): 10.3 µM

COc1cc(-c2c3c4cc(OC)c(O)cc4oc(=O)c3n3ccc4c([N+](=O)[O-])cccc4c23)ccc1O [Compound 53]
GI50 (HT-29): 2.17 µM
CC50 (HT-29): 20.1 µM
IC (TGI) (HT-29): 20.1 µM
GI50 (SK-MEL-28): 4.03 µM
CC50 (SK-MEL-28): 20.1 µM
IC (TGI) (SK-MEL-28): 15.5 µM
GI50 (IGROV): 1.38 µM
CC50 (IGROV): 20.1 µM
IC (TGI) (IGROV): 20.1 µM
GI50 (SK-BR-3): 1.99 µM
CC50 (SK-BR-3): 20.1 µM
IC (TGI) (SK-BR-3): 9.49 µM
GI50 (A-549): 5.66 µM
CC50 (A-549): 20.1 µM
IC (TGI) (A-549): 20.1 µM
GI50 (K-562): 10.3 µM
CC50 (K-562): 20.1 µM
IC (TGI) (K-562): 20.1 µM
GI50 (IGROV-ET): 20.1 µM
CC50 (IGROV-ET): 20.1 µM
IC (TGI) (IGROV-ET): 20.1 µM
GI50 (DU-145): 4.53 µM
CC50 (DU-145): 20.1 µM
IC (TGI) (DU-145): 12.3 µM
GI50 (LNCaP): 4.01 µM
CC50 (LNCaP): 20.1 µM
IC (TGI) (LNCaP): 9.75 µM
GI50 (LoVo-Dox): 20.1 µM
CC50 (LoVo-Dox): 20.1 µM
IC (TGI) (LoVo-Dox): 20.1 µM
GI50 (LoVo): 11.1 µM
CC50 (LoVo): 20.1 µM
IC (TGI) (LoVo): 20.1 µM
GI50 (HeLa): 0.59 µM
CC50 (HeLa): 20.1 µM
IC (TGI) (HeLa): 12.3 µM
GI50 (HeLa-APL): 20.1 µM
CC50 (HeLa-APL): 20.1 µM
IC (TGI) (HeLa-APL): 20.1 µM
GI50 (PANC-1): 1.03 µM
CC50 (PANC-1): 20.1 µM
IC (TGI) (PANC-1): 9.67 µM
